The text below walks through data of patent publication US9877993B2, “Composition for cognitive and cosmetic purposes” (BIOTROPICS MALAYSIA BERHAD, priority 2012, dated 2018).

In assay [1] the test system is Collagenase from Clostridium histolyticum. Description: Collagenase inhibition bioassay in vitro (EnzChek gelatinase/collagenase kit). Type of assay: biochemical. The method, then: Solvents and reagents: EnzChek™gelatinase/Collagenase Assay kit (E12055, Molecular probes, Invitrogen, USA, Stored at −20° C.) containing: DQ gelatin from pigskin, Flourescein conjugate, 10× reaction buffer, 1,10 Phenanthroline monohydrate, Collagenase from Clostridium histolyticum.
2.5 mg of sample was prepared by dissolving it into 200 μl of DMSO and made up to 10 ml with 1× reaction buffer. Further dilutions were made as required. The enzymatic cleavage of DQ gelatin, Flourescein conjugate releases flourescent peptide. The increase in fluorescence is proportional to proteolytic activity. The digested product form DQ gelatin, Flourescein conjugate is excited with light at 490 nm and the emitted light at 520 nm is detected in a fluorometric plate reader.
Collagenase inhibition assay was carried out as per the kit insert of EnzChek™gelatinase/Collagenase Assay kit (E12055, Molecular probes, Invitrogen, USA). In brief, 80 μl of 1× reaction buffer/vehicle buffer/test solution/positive control of various concentrations, 100 μl of enzyme solution (0.1 units/ml), 20 μl of substrate solution (1 mg/ml) were added and mixed for 15 sec, incubated at 25° C. for 2 hours and read in a fluorescence microplate reader [Fluostar Optima, BMG Labtech, Germany] with the following parameters wherein it was excited at 490 nm, and the emission at 520 nm was recorded by the Costar 96 fluorometric plate reader.
A control reaction was carried out without the test samples respective sample blanking, control blanking and vehicle blanking were done (which contained all reagents except the enzymes). The percentage inhibition was calculated as follows:
[formula] where AFU=arbitrary fluorescence units and IC50 was calculated using log-probit analysis.

A further assay has as its system scopolamine treated mice. Description: Barnes maze, scopolamine induced deficits in learning and memory. Type of assay: in vivo, C57BL/6 mice. The source says: The animals are placed on an elevated, open, circular platform. The animal is exposed to intense light, or to a loud noise. In response to this intense stimulation the animal searches for shelter and enters one of the holes around the platform. Although the device was originally designed to be used with rats, soon it experienced modifications in order to be used with mice as well. Indeed, the device has been considered appropriate for this species because of its ability to find and escape through small holes.
Scopolamine, a muscarinic cholinergic antagonist, is known to cause impairments in Barnes maze testing. These impairments can be reversed by increasing cholinergic tone by the administration of cholinesterase inhibitors such as donepezil.
The scopolamine induced deficits in learning were evidenced by the increase in both total and primary errors, total and primary latency and total and primary path length. The Barnes mazes testing involves the parameters as set forth below.
Primary Path Length (cm): The distance moved by the subject before first contact with the escape hole. First contact is defined as the point of the nose touching the escape hole.
Total Path Length (cm): The distance moved by the subject before completing the task. Completion of task is defined as the entering of the subject into escape box. This ends the trial.
Primary Errors: The count of the number of errors made by the subject before first contact with the escape hole. Any contact of the nose point to a non-escape hole is considered as an error. Multiple contacts to the same non-escape hole are counted as multiple errors under this context. Total Errors: The count of the number of errors made by the subject throughout the trial. Any contact of the nose point to a non-escape hole is considered as an error. Multiple contacts to the same non-escape hole are counted as multiple errors under this context. Primary Latency (sec): The latency to the first contact with the escape hole by the nose point of the subject. Total Latency (sec): The latency for subject to complete the task. Completion of task is defined as the entering of the subject into escape box, which ends the trial. (i) Test Article
The test articles, propriety Polygonum minus extract and commercially available Ginkgo biloba extract (comparator extract) were used in this study. These extracts were prepared and stored for the project to the supplier's specifications. The doses of the extract chosen for the study were identified by the supplier A 30× stock suspension was prepared every week for each article. This was aliquot into batches which were then stored at 4° C. throughout the week. The stock suspension was diluted with ultra-pure water to working concentration every day before the dosing, and discarded after the dosing. Oral gavage needles were filled with the required amounts of suspension. Care was taken to ensure the even distribution of particles by vortex-mixing the suspensions before preparation in individual syringes, and also by syringe-mixing the diluted test article. The dose and time of scopolamine administration has been previously shown to produce deficits in spatial navigation tasks in rodents. The dose was increased from the initially reported 0.3 mg/kg to 0.5 mg/kg, as the higher dose would produce a more reliable deficit.
2-6 month-old male C57BL/6 mice (20-25 g), (n=12 to 14) were supplied by BioLASCO (Taiwan). They were housed in an IVC system (Allentown, USA) under a 12/12-h light/dark (200-300 Lux) cycle (lights on 07:00 h) with free access to food (Labdiet, formulated laboratory chow) and water and humidity keep between 50%-70%. The total animals used for each treatment are shown in the Table 13 below (subjects used for each arm in the experiment).
Chronic treatment via p.o. was conducted with the TEST COMPOUNDS (test dose 1 and 2) as per Table 12 and Table 12 above and CONTROL […] (vehicle and ginkgo) continuously for 19 days. Dosing was given daily at 1800 hr. […]

[2] abbreviates: donepezil 1 mg/kg i.p. + scopolamine.
[3] abbreviates: scopolamine 0.5 mg/kg i.p. vs vehicle control treated group.
[4] abbreviates: scopolamine 0.5 mg/kg i.p. vs vehicle treated control mice.

pIC50: −log10 of the molar value. Like-named read-outs stand apart in the source and are kept apart here.

Consider `O.c1cnc2c(c1)ccc1cccnc12` [1,10-Phenanthroline monohydrate], for which the “% inhibition” value in assay [1] is on record as 40.81%; in assay [1] (12.5 μM), 0.00%; in assay [1] (25 Mm), 11.60%; in assay [1] (100 Mm) it was 88.00%. Moreover, the negative-log IC50 (pIC50) in assay [1] (log-probit analysis, read-out: IC50 (95% confidence interval)) is 4.27.
`COc1cc2c(cc1OC)C(=O)C(CC1CCN(Cc3ccccc3)CC1)C2` (stereo not shown) [donepezil]: in the assay on scopolamine treated mice (setting [2]), the “Primary and total latency, scopolamine induced deficit” value is recorded as “A similar result is obtained”; the “Scopolamine induced deficits in acquisition (learning) phase” value is reported as “attenuated”. In the assay with scopolamine treated mice (donepezil 1 mg/kg i.p. + scopolamine 0.5 mg/kg i.p.), the “Path length, scopolamine induced deficit” value was “did not show a scopolamine induced deficit”. The “Probe trial, time spent in target segment (memory deficit)” value with scopolamine treated mice (donepezil 1 mg/kg i.p. + scopolamine, day 5) was “reversed the scopolamine deficit”. Also, the “Total errors, scopolamine induced deficit” value in the assay on scopolamine treated mice (donepezil 1 mg/kg i.p. + scopolamine, days one and two) is reported as “deficits for total errors were not seen”.
Turning to `CN1[C@@H]2C[C@@H](OC(=O)[C@H](CO)c3ccccc3)C[C@H]1[C@@H]1O[C@@H]12` [scopolamine], the “Primary and total latency, learning” value in the assay with scopolamine treated mice (scopolamine 0.5 mg/kg i.p. vs vehicle control) is “induces a deficit in learning”. Moreover, in the assay with scopolamine treated mice (setting [3]), the “Primary path length, performance” value is recorded as “decreased performance only on day two”; the “Total path length, days with decreased performance” value was “days one two and three”. In the assay on scopolamine treated mice (setting [4]), the “Primary errors, learning” value is given as “induced a deficit in learning on day two”; the “Total errors, days with deficit in learning” value was “on days one and two”. For the same compound, the “Probe trial, preference for target segment (memory)” value in the assay with scopolamine treated mice (scopolamine 0.5 mg/kg i.p., day 5) is listed as “induced a deficit in memory”.

Broadly, the % inhibition is the share of the control response that was lost under treatment. In general, pIC50 refers to the IC50 on a negative log10 scale, so that one unit is a factor of ten.
